Results taken from US11571403B2, “Methods for the treatment of non-alcoholic steatohepatitis” (Eiger Biopharmaceuticals, Inc., priority 2016, dated 2023).

Tests used:
[1] = test system: STAM mouse model for NASH; assay: Fibrosis area by Sirius red staining, STAM mouse NASH model (Example 1); format: in vivo; conditions: 7 to 9 weeks of age
Excerpt: (§1) The STAM™ mouse is a model for NASH created by a combination of chemical and dietary interventions in C57BL/6 mice that manifest NASH at about 8 weeks, which progresses to fibrosis at about 12 weeks and then progresses to HCC at about 16 weeks. See, Saito et al., Sci. Rep. 2015, 5:12466.
(§2) In the study, the control groups were as follows: (i) Untreated Disease Control—a group of STAM mice injected with streptozotocin (STZ, Sigma-Aldrich, USA) at 2 days old, and fed a high fat diet (HFD, 57 kcal % fat, Cat #HFD32, CLEA Japan, Japan) starting at 4 weeks old; and (ii) Positive Control—a group of STAM mice treated with telmisartan (10 mg/kg QD from 7 to 9 weeks). In addition to these control groups, test groups of STAM mice treated with a low dose of ubenimex (5 mg/kg ubenimex BID from 7 to 9 weeks) or a high dose of ubenimex (25 mg/kg BID from 7 to 9 weeks), were included in the study. The low dose is equivalent to a human dose of 30 mg BID. The high dose is equivalent to a human dose of 150 mg BID. The viability, clinical signs and behavior were monitored daily, including body weight, signs of toxicity, moribundity and mortality. The mice were maintained in a SPF facility under controlled conditions of temperature (23±2° C.), humidity (45±10%), lighting (12-hour artificial light and dark cycles; light from 8:00 to 20:00) and air exchange. A high pressure was maintained in the experimental room to prevent contamination of the facility. The mice were housed in TPX cages (CLEA Japan) with a maximum of 4 mice per case.
(§3) All groups of mice were sacrificed at 9 weeks. Once sacrificed, the body weight of each mouse was recorded. The liver of each mouse was removed and weighed. The liver-to-body weight ratio was determined for each mouse. Blood serum levels of CK-18, ALT, and liver triglycerides were determined for each mouse. The livers were then sectioned and stained with hematoxylin and eosin (“HE”) stain, as well as Sirius red staining, to determine liver steatosis (ballooning) and fibrosis, respectively.

[2] = test system: STAM mouse model for NASH; assay: NAFLD Activity Score by HE staining, STAM mouse NASH model (Example 1); format: in vivo; conditions: for Steatosis score 0, number of mice: score 0 = <5%; for Steatosis score 0, number of mice / Hepatocyte ballooning score 0, number of mice / Steatosis score 1, number of mice / Lobular inflammation score 1, number of mice / Lobular inflammation score 2, number of mice / Lobular inflammation score 3, number of mice / NAS (mean ± SD) / Hepatocyte ballooning score 1, number of mice: 7 to 9 weeks of age; for Hepatocyte ballooning score 0, number of mice: score 0 = None; for Steatosis score 1, number of mice: score 1 = 5-33%; for Lobular inflammation score 1, number of mice: score 1 = <2 foci/200x; for Lobular inflammation score 2, number of mice: score 2 = 2-4 foci/200x; for Lobular inflammation score 3, number of mice: score 3 = >4 foci/200x; for Hepatocyte ballooning score 1, number of mice: score 1 = Few balloon cells
Excerpt: as §1, §2, §3

[3] = test system: STAM model of NASH fibrosis; assay: NAFLD Activity Score by HE staining, STAM model of NASH with fibrosis (Example 3); format: in vivo, mouse; conditions: for Steatosis score 0, number of mice: score 0 = <5%; for Hepatocyte ballooning score 0, number of mice: score 0 = None; for Steatosis score 1, number of mice: score 1 = 5-33%; for Hepatocyte ballooning score 1, number of mice: score 1 = Few balloon cells; for Lobular inflammation score 2, number of mice: score 2 = 2-4 foci/200x; for Lobular inflammation score 3, number of mice: score 3 = >4 foci/200x; for Steatosis score 2, number of mice: score 2 = >33-66%; for Hepatocyte ballooning score 2, number of mice: score 2 = Many cells/prominent ballooning
Experimental: Ubenimex or telmisartan was administered orally in a volume at 10 mL/kg. Ubenimex was administered at a dose of 5 mg/kg once daily or twice daily. Telmisartan was administered at a dose of 5 mg/kg once daily.
For HE staining, sections were cut from paraffin blocks of liver tissue prefixed in Bouin's solution and stained with Lillie-Mayer's hematoxylin (Muto Pure Chemicals Co., Ltd., Japan) and eosin solution (Wako Pure Chemical Industries, Ltd., Japan). NAFLD Activity Score (NAS) was calculated according to the criteria of Kleiner (Kleiner et al., Hepatology, 2005, 41:1313). To visualize collagen deposition, Bouin's fixed liver sections were stained using picro-Sirius red solution (Waldeck, Germany). For quantitative analysis of fibrosis area, bright field images of Sirius red-staining sections were captured around the central vein using a digital camera (DFC295; Leica, Germany) at 200-fold magnification, and the positive areas in 5 fields/section were measured using ImageJ software (National Institutes of Health, USA).
Statistical tests: Statistical analyses were performed using Bonferroni Multiple Comparison Test on GraphPad Prism 6 (GraphPad Software Inc., USA). P values <0.05 were considered statistically significant. A trend or tendency was assumed when a one-tailed t-test returned P values <0.1. Results were expressed as mean±SD.
Study groups: The following study groups were used. Group 1 (Vehicle): 8 NASH mice were orally administered vehicle (RO water) in a volume of 10 mL/kg twice daily from 6 to 11 weeks of age. Group 2 (Ubenimex QD for 5 weeks): 8 NASH mice were orally administered vehicle supplemented with ubenimex at a dose of 5 mg/kg once daily from 6 to 11 weeks of age. Group 3 (Ubenimex BID for 5 weeks): 8 NASH mice were orally administered vehicle supplemented with ubenimex at a dose of 5 mg/kg twice daily from 6 to 11 weeks of age. Group 4 (Ubenimex BID for 2 weeks): 8 NASH mice were orally administered vehicle supplemented with ubenimex at a dose of 5 mg/kg twice daily from 9 to 11 weeks of age. Group 5 (Telmisartan for 5 weeks): 8 NASH mice were orally administered pure water supplemented with telmisartan at a dose of 5 mg/kg once daily from 6 to 11 weeks of age.

[4] = test system: STAM mouse model for NASH; assay: Biochemistry: plasma ALT and liver triglyceride, STAM mouse NASH model (Example 1); format: in vivo; conditions: 7 to 9 weeks of age
Excerpt: as §1, §2, §3

[5] = telmisartan 5 mg/kg QD oral, 6 to 11 weeks of age
[6] = ubenimex 5 mg/kg BID oral, 6 to 11 weeks of age
[7] = ubenimex 5 mg/kg BID oral, 9 to 11 weeks of age
[8] = ubenimex 5 mg/kg QD oral, 6 to 11 weeks of age

SMILES: CCCc1nc2c(C)cc(-c3nc4ccccc4n3C)cc2n1Cc1ccc(-c2ccccc2C(=O)O)cc1 [Telmisartan, telmisartan]
- Sirius red-positive area (fibrosis area, mean ± SD) ([1]; telmisartan 10 mg/kg QD): 0.71 ± 0.15%
- Steatosis score 0, number of mice ([2]; telmisartan 10 mg/kg QD): 3
- Hepatocyte ballooning score 0, number of mice ([2]; telmisartan 10 mg/kg QD): 8
- Steatosis score 1, number of mice ([2]; telmisartan 10 mg/kg QD): 5
- Lobular inflammation score 1, number of mice ([2]; telmisartan 10 mg/kg QD): 2
- Lobular inflammation score 2, number of mice ([2]; telmisartan 10 mg/kg QD): 4
- Lobular inflammation score 3, number of mice ([2]; telmisartan 10 mg/kg QD): 2
- NAS (mean ± SD) ([2]; telmisartan 10 mg/kg QD): 2.6 + 0.9
- Steatosis score 0, number of mice [3, 5]: 1
- Lobular inflammation score 0, number of mice ([3]; score 0 = No foci, telmisartan 5 mg/kg QD oral, 6 to 11 weeks of age): 1
- Hepatocyte ballooning score 0, number of mice [3, 5]: 3
- Steatosis score 1, number of mice [3, 5]: 5
- Hepatocyte ballooning score 1, number of mice [3, 5]: 3
- Lobular inflammation score 2, number of mice [3, 5]: 3
- Lobular inflammation score 3, number of mice [3, 5]: 2
- NAS (mean ± SD) [3, 5]: 3.3 ± 1.0
- Liver triglyercide (mean ± SD) ([4]; telmisartan 10 mg/kg QD): 22.4 ± 7.5 mg/g liver
- Plasma ALT (mean ± SD) ([4]; telmisartan 10 mg/kg QD): 44 ± 13 U/L

SMILES: CC(C)C[C@H](NC(=O)[C@@H](O)[C@H](N)Cc1ccccc1)C(=O)O [Ubenimex, (2S)-2-[[(2S,3R)-3-amino-2-hydroxy-4-phenylbutanoyl]amino]-4-methylpentanoic acid]
- Sirius red-positive area (fibrosis area, mean ± SD) ([1]; ubenimex 5 mg/kg BID): 0.80 ± 0.16%
- Sirius red-positive area (fibrosis area, mean ± SD) ([1]; ubenimex 25 mg/kg BID): 1.05 ± 0.14%
- Hepatocyte ballooning compared with the control group ([2]; high and low dose ubenimex groups (25 and 5 mg/kg BID, 7 to 9 weeks)): significantly decreased
- Steatosis score 0, number of mice ([2]; ubenimex 5 mg/kg BID): 1
- Hepatocyte ballooning score 0, number of mice ([2]; ubenimex 5 mg/kg BID): 4
- Hepatocyte ballooning score 0, number of mice ([2]; ubenimex 25 mg/kg BID): 5
- Steatosis score 1, number of mice ([2]; ubenimex 5 mg/kg BID): 5
- Steatosis score 1, number of mice ([2]; ubenimex 25 mg/kg BID): 7
- Lobular inflammation score 1, number of mice ([2]; ubenimex 5 mg/kg BID): 1
- Hepatocyte ballooning score 1, number of mice ([2]; ubenimex 5 mg/kg BID): 2
- Hepatocyte ballooning score 1, number of mice ([2]; ubenimex 25 mg/kg BID): 2
- Lobular inflammation score 2, number of mice ([2]; ubenimex 5 mg/kg BID): 3
- Lobular inflammation score 2, number of mice ([2]; ubenimex 25 mg/kg BID): 5
- Lobular inflammation score 3, number of mice ([2]; ubenimex 5 mg/kg BID): 2
- Lobular inflammation score 3, number of mice ([2]; ubenimex 25 mg/kg BID): 2
- NAS (mean ± SD) ([2]; ubenimex 5 mg/kg BID): 3.3 ± 0.5
- NAS (mean ± SD) ([2]; ubenimex 25 mg/kg BID): 3.6 ± 0.5
- Steatosis score 0, number of mice [3, 6]: 1
- Steatosis score 0, number of mice [3, 7]: 1
- Hepatocyte ballooning score 0, number of mice [3, 6]: 5
- Hepatocyte ballooning score 0, number of mice [3, 7]: 4
- Hepatocyte ballooning score 0, number of mice [3, 8]: 2
- Steatosis score 1, number of mice [3, 6]: 4
- Steatosis score 1, number of mice [3, 7]: 4
- Steatosis score 1, number of mice [3, 8]: 6
- Lobular inflammation score 1, number of mice ([3]; score 1 = <2 foci/200x, ubenimex 5 mg/kg QD oral, 6 to 11 weeks of age): 1
- Hepatocyte ballooning score 1, number of mice [3, 7]: 1
- Hepatocyte ballooning score 1, number of mice [3, 8]: 4
- Lobular inflammation score 2, number of mice [3, 6]: 2
- Lobular inflammation score 2, number of mice [3, 7]: 4
- Lobular inflammation score 2, number of mice [3, 8]: 3
- Steatosis score 2, number of mice [3, 6]: 1
- Steatosis score 2, number of mice [3, 7]: 1
- Hepatocyte ballooning score 2, number of mice [3, 6]: 1
- Hepatocyte ballooning score 2, number of mice [3, 7]: 1
- Lobular inflammation score 3, number of mice [3, 6]: 4
- Lobular inflammation score 3, number of mice [3, 7]: 2
- Lobular inflammation score 3, number of mice [3, 8]: 2
- NAS (mean ± SD) [3, 6]: 4.0 ± 1.7
- NAS (mean ± SD) [3, 7]: 3.8 ± 1.0
- NAS (mean ± SD) [3, 8]: 3.8 ± 0.8
- Liver triglyercide (mean ± SD) ([4]; ubenimex 5 mg/kg BID): 50.0 ± 22.7 mg/g liver
- Plasma ALT (mean ± SD) ([4]; ubenimex 5 mg/kg BID): 59 ± 22 U/L
- Liver triglyercide (mean ± SD) ([4]; ubenimex 25 mg/kg BID): 34.8 ± 22.2 mg/g liver
- Plasma ALT (mean ± SD) ([4]; ubenimex 25 mg/kg BID): 62 ± 11 U/L
